Results published in patent publication US10016440B2, “Methods of enhancing antibody-dependent cellular cytotoxicity” (VentiRx Pharmaceuticals, Inc., priority 2010, dated 2018).

Columns and labels:
Assay type in all cases: cell-based, human
[1] = test system: breast cancer cell line SKBR3; assay: Herceptin-mediated ADCC of SKBR3 cells by PBMC effector cells (Calcein AM release); conditions: PBMCs activated with the ADCC enhancer (FIG. 3)
Protocol: (§1) Human Peripheral blood mononuclear cells (PBMCs) were isolated by Ficoll™ density gradient centrifugation and resuspended in RPMI containing 2% heat-inactivated FBS. PBMCs at a concentration of 1 to 3 million cells per mL were incubated with 10-500 nM ADCC enhancer in a humidified CO2 incubator for 18-72 hrs. Activated PBMCs were then used as effector cells in NK and ADCC assays. PBMCs activated with the ADCC enhancer were tested for the ability to enhance killing of the NK sensitive target cell line K562 or various tumor cells coated with monoclonal antibodies. Target cells were labeled with the fluorescent dye Calcein AM for 1 hour at 37° C. in a dark humidified CO2 incubator. […] Activated effector cells and labeled target cells were incubated in 96-well tissue culture plates at for 4 hours at 37° C. in a dark humidified CO2 incubator in an assay buffer containing HBSS+Ca/Mg+5% FBS. […] Fluorecence was quantified with a fluorescent microtiter plate reader. The % specific lysis was calculated as (Sample fluorescence-spontaneous fluorescence)*100/(100% fluorescence-spontaneous). 100% fluorescence was determined from wells that contained labeled target cells and detergent such at 0.1% Tween-20 or Triton X-100. Spontaneous fluorescence was determined from wells that contained assay buffer and target cells but not effector cells.

[2] = test system: breast cancer cell line MDA-MB-231; assay: Herceptin-mediated ADCC of MDA-MB-231 cells by PBMC effector cells (Calcein AM release); conditions: PBMCs activated with the ADCC enhancer (FIG. 3)
Protocol: as §1

[3] = test system: rituximab-coated HS-Sultan cells; assay: Rituximab-mediated ADCC of HS-Sultan cells with PBMC from donors genotyped for FcgR polymorphisms; conditions: for baseline ADCC (percent specific lysis): buffer control, E:T 50:1 (FIG. 4); for rituximab-mediated ADCC activity: unstimulated PBMC
Protocol: Percent specific lysis is shown for Rituxan-coated HS-Sultan cells incubated with PBMC effector cells at an E:T ratio of 50:1. PBMCs from a patient with the high affinity genotype FcgR2a131 H/H and FcgR3a V/V (solid rectangles) or a patient with the lower affinity genotype FcgR2a131 […] and FcgR3a V/F (open rectangles) were evaluated for ADCC after stimulation with buffer control (baseline) or stimulation with 500 nM ADCC enhancer.
ADCC is mediated through immune effector cells included NK cells that engage the Fc portion of the monoclonal antibody through specific receptors. Patients with single nucleotide polymorphisms in these receptors such as FcRgamma3a position 158 and FcRgamma2a position 131 have a poorer clinical prognosis presumably from poor ADCC due to a lower affinity of the receptor for the monoclonal antibody. […] To determine if this common polymorphism affects the baseline antibody-dependent cellular cytoxicity (ADCC) response and/or response to the ADCC enhancer molecule of the present invention (Compound VTX-2337), PBMCs from donors were genotyped for the two alleles encoding the F and V isoforms, respectively, and tested in vitro. We analyzed rituximab-mediated ADCC using unstimulated PBMC or VTX-2337-stimulated PBMC from 15 donors, including 10 donors with FF or FV phenotype and 5 donors with VV phenotype.
Blood was collected from healthy donors and PBMCs were isolated using a Ficoll gradient. PBMCs were activated by culturing them in the presence of 500 nM VTX-2337 at 37° C. in a humidified 5% CO2 incubator for 48 hours. Activated PBMCs were then incubated with rituximab-coated HS-Sultan cells loaded at a ratio of 100:1 for 4 hours. Lysis was determined by measuring release of the fluorescent dye Calcein AM from the HS-Sultan cells.

Compound: CCCN(CCC)C(=O)C1=Cc2ccc(-c3ccc(C(=O)N4CCCC4)cc3)cc2N=C(N)C1 [ADCC enhancer, {2-amino-8-[4-(pyrrolidinylcarbonyl)phenyl]-(3H-benzo[f]azepin-4-yl)}-N,N-dipropylcarboxamide]
- killing of Herceptin coated SKBR3 targets [1]: > 80%
- killing of Herceptin coated MDA-MB-231 targets [2]: 40-60%
- rituximab-mediated ADCC ([3]; PBMC stimulated with 500 nM VTX-2337 for 48 hours, low affinity FF/FV group, E:T 100:1 (FIG. 5)): 40.0±4.1%

Compound: Rituxan: anti-CD20 monoclonal antibody rituximab (Rituxan)
- baseline ADCC (percent specific lysis) ([3]; patient with high affinity genotype FcgR2a131 H/H and FcgR3a V/V): approximately 30%
- baseline ADCC (percent specific lysis) ([3]; patient with lower affinity genotype FcgR2a131 A/A and FcgR3a V/F): 10%
- rituximab-mediated ADCC activity ([3]; FF/FV donors, E:T 100:1 (FIG. 5)): 20.5±2.5 % specific lysis
- rituximab-mediated ADCC activity ([3]; VV donors, E:T 100:1 (FIG. 5)): 31.7±2.9 % specific lysis
